In PubChem BioAssay (NCI):
Several values for one entry are separate records, joined by “and”; a condition that tells them apart may be missing. Equal values may be shown once.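 Method: 48-hour compound exposure of cells in 96-well plates, five concentrations, linear interpolation of endpoints. GI50 marks 50% less growth. TGI: concentration producing complete growth inhibition.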

How the values were obtained:
Assay in all cases: DTP human tumour cell line panel, 48 h
HOP-92 NSCLC = system: HOP-92 NSCLC
UACC-62 melanoma = system: UACC-62 melanoma
OVCAR-5 ovarian = system: OVCAR-5 ovarian
SK-MEL-5 melanoma = system: SK-MEL-5 melanoma
KM12 colon = system: KM12 colon
M14 melanoma = system: M14 melanoma
MDA-MB-231 breast = system: MDA-MB-231 breast
K-562 leukemia = system: K-562 leukemia
CCRF-CEM leukemia = system: CCRF-CEM leukemia
SR leukemia = system: SR leukemia

Structure (SMILES)	GI50 (HOP-92 NSCLC) [µM]	TGI (HOP-92 NSCLC)	GI50 (UACC-62 melanoma) [µM]	TGI (UACC-62 melanoma)	GI50 (OVCAR-5 ovarian) [µM]	TGI (OVCAR-5 ovarian)	GI50 (SK-MEL-5 melanoma) [µM]	TGI (SK-MEL-5 melanoma)	GI50 (KM12 colon) [µM]	TGI (KM12 colon)	GI50 (M14 melanoma) [µM]	TGI (M14 melanoma)	GI50 (MDA-MB-231 breast) [µM]	TGI (MDA-MB-231 breast) [µM]	GI50 (K-562 leukemia) [µM]	TGI (K-562 leukemia)	GI50 (CCRF-CEM leukemia) [µM]	TGI (CCRF-CEM leukemia)	GI50 (SR leukemia) [µM]	TGI (SR leukemia)
COC(=O)Nc1nc2ccc(Sc3ccc(NC(=O)Nc4cc(C(F)(F)F)ccc4F)cc3)cc2[nH]1	2.53	10.3 µM	1.85	8.38 µM	3.5	9.24 µM	0.95	11.7 µM	0.113	3.99 µM	2.01	8.26 µM	2.84	9.32	0.739	5.89 µM	3.3	12.5 µM		
COc1ncnc2c(-c3ccco3)cn(COCc3ccccc3)c12			8.2	> 50 µM	> 50	> 50 µM	1.28	> 50 µM	> 50	> 50 µM	22.5	> 50 µM	> 50	> 50	> 50	> 50 µM	> 50	> 50 µM		
CN1CCN(C(=S)SCN2C(=O)c3ccccc3S2(=O)=O)CC1			18.8	54.1 µM	30.2	> 100 µM	16.1	38.9 µM	25.3	> 100 µM	7.93	22.8 µM	35.3	> 100	14.5	94.6 µM	2.23		4.04	13.4 µM
Cc1cccc(CC(C)(C)C)c1NC(=O)C(=O)C(C(=O)c1ccc2ccccc2c1)C1OC(=O)c2ccccc21 (stereo not given)		8.54 µM		21.7 µM		34.7 µM		26.7 µM		30.3 µM		> 100 µM								> 100 µM
CC1SC2(CCCCC2)N(NC(=O)c2[nH]c3ccc(F)cc3c2-c2ccccc2)C1=O (stereo not given)	16.9	59.9 µM	21.2	> 100 µM	> 100	> 100 µM	> 100	> 100 µM	63.7	> 100 µM	> 100	> 100 µM	31	> 100	35.4	> 100 µM	> 100	> 100 µM		
Cc1cccc(N2C(=O)/C(=C/c3ccc(N(CCC#N)CCC#N)cc3C)N=C2c2cc([N+](=O)[O-])ccc2Cl)c1		> 100 µM		> 100 µM		> 100 µM		> 100 µM		> 100 µM		> 100 µM				> 100 µM		> 100 µM		> 100 µM
CCOC(=N)CC(=O)NC(C)c1ccccc1 (stereo not given)				> 100 µM		> 100 µM		> 100 µM		> 100 µM		> 100 µM				> 100 µM		> 100 µM		> 100 µM
O=C1c2cccc3cccc(c23)C(=O)N1CCCN1CCN(CCCN2C(=O)c3cccc4cccc(c34)C2=O)CC1		> 100 µM		> 100 µM		> 100 µM		> 100 µM		> 100 µM		> 100 µM				> 100 µM		> 100 µM		
CCN1CC2(C)CC[C@@H](OC)C34[C@@H]2[C@H](OC(C)=O)C2(OCO[C@@]25C[C@H](OC)C2C[C@]3(O)[C@@H]5[C@H]2O)[C@H]14		> 100 µM				> 100 µM				> 100 µM		> 100 µM								> 100 µM
CCSc1nc(N)c2cnn(C)c2n1	77.4	> 100 µM	29.5	69.6 µM	49.9	> 100 µM	16.1	38.9 µM	34.6	> 100 µM	52	> 100 µM	25.1	71	54.5	> 100 µM	42.3	> 100 µM		
Cn1c(COC(=O)NCCN2CCOCC2)nc2c(N3CCOCC3)nc(-c3ccccc3)nc21	0.779	2.45 µM	1.36	2.81 µM	1.6	3.66 µM	1.64	3.05 µM	1.53	3.4 µM	1.15	2.58 µM	1.3	2.88	0.523	> 100 µM	0.306	2.17 µM		
C/C(=N\NC(=S)N1CCC(C2CCN(C(=S)N/N=C(\C)c3ccccn3)CC2)CC1)c1ccccn1		> 100 µM		> 100 µM		> 100 µM		> 100 µM		> 100 µM		> 100 µM				> 100 µM		> 100 µM		
O=C1CC2Sc3ccccc3N=C2N1c1ccc(Cl)cc1Cl (stereo not given)		> 100 µM		> 100 µM		> 100 µM		> 100 µM		> 100 µM		> 100 µM						52.9 µM		
O=C1/C(=C/c2ccccc2)CN(C(=O)OCC(Cl)(Cl)Cl)C/C1=C\c1ccccc1				9.03 µM		16.8 µM		2.95 µM		3.74 µM		4.65 µM				5.91 µM		13.5 µM		6.23 µM
Cc1ns/c(=N\C(=S)N(C)C)n1C		> 100 µM		> 100 µM		> 100 µM		> 100 µM		> 100 µM		> 100 µM				> 100 µM		> 100 µM		> 100 µM
CC1(C)CC2(C)OC2C2(C1)N=NC(=Nc1ccccc1)O2 (stereo not given)			3.76	16 µM	11.2	26.2 µM	5.48	18.5 µM	13.6	28.6 µM	5.15	19.2 µM	2.61	7.75	2.3	12.5 µM	2.46	8.07 µM	2.56	8.68 µM
C#Cc1ccc(-n2c(/C=C/c3cc(OC)c(OC)c(OC)c3)nc3ncccc3c2=O)cc1	2.31	7.72 µM	6.9	> 100 µM	> 100	> 100 µM	1.78	4.4 µM	3.32	12.8 µM	4.94	> 100 µM	5.53	> 100	3.83	> 100 µM	4.9	> 100 µM		
COc1ccc(-n2nc(C)c3c2N(C)C2(C)C[C@@H]4C3(C)[C@@H]3CC4(C2)N(C)c2c(c(C)nn2-c2ccc(OC)cc2)[C@H]3C)cc1 (stereo not given in full)			12.6	> 100 µM	> 100	> 100 µM							6.35	48.3						

Structure (SMILES)	GI50 (HOP-92 NSCLC) [µM]	TGI (HOP-92 NSCLC)	GI50 (UACC-62 melanoma) [µM]	TGI (UACC-62 melanoma)	GI50 (OVCAR-5 ovarian) [µM]	TGI (OVCAR-5 ovarian)	GI50 (SK-MEL-5 melanoma) [µM]	TGI (SK-MEL-5 melanoma)	GI50 (KM12 colon) [µM]	TGI (KM12 colon)	GI50 (M14 melanoma) [µM]	TGI (M14 melanoma)	GI50 (MDA-MB-231 breast) [µM]	TGI (MDA-MB-231 breast) [µM]	GI50 (K-562 leukemia) [µM]	TGI (K-562 leukemia)	GI50 (CCRF-CEM leukemia) [µM]	TGI (CCRF-CEM leukemia)	GI50 (SR leukemia) [µM]	TGI (SR leukemia)
O=C1c2ccccc2C(=O)c2c1ccc1c3ccccc3n(Cc3ccccc3)c21		94.2 µM		> 100 µM		> 100 µM		> 100 µM		> 100 µM		> 100 µM				> 100 µM		> 100 µM		> 100 µM
O=C(OCc1nc2ccc(Br)cc2c(=O)n1-c1ccccc1)c1ccccc1O		> 100 µM		> 100 µM		> 100 µM		68.7 µM		> 100 µM		> 100 µM				> 100 µM		> 100 µM		
Cc1[nH]c(=O)nc(N/N=C/c2ccc(O)cc2)c1C(=O)Nc1ccc(Cl)cc1				> 100 µM				> 100 µM		> 100 µM		> 100 µM				> 100 µM		> 100 µM		> 100 µM
Cn1cc(-c2nn3cc(-c4cccs4)nc3s2)c2cc(F)ccc21	12.2	76.9 µM	1.93	> 100 µM	8.24	84.4 µM	1.8	12.9 µM	1.04	> 100 µM	1.05	> 100 µM	3.23	30.6	0.451	> 100 µM	2.54	> 100 µM		
COc1ccccc1NC(=O)C(=O)C1C(=O)Nc2ccccc2S1=O (stereo not given)				> 100 µM		> 100 µM		> 100 µM		> 100 µM		> 100 µM				> 100 µM		> 100 µM		> 100 µM
COC(=O)C1CCC(=NC2c3ccccc3-c3ccccc32)N1 (stereo not given)		76.6 µM		> 100 µM		> 100 µM				> 100 µM		> 100 µM				> 100 µM		> 100 µM		
Nc1ncnc2c1ncn2Cc1ccc(C23CC4CC(CC(C4)C2)C3)c(O)c1	16.4	37.5 µM	31.8	> 100 µM	> 100	> 100 µM	4.02	88.2 µM	13.7	> 100 µM			13.6	63.1			3.97	> 100 µM		
COc1cc2c(c(OC)c1OC)-c1ccc(SC)c(=O)cc1[C@@H](NC(=O)c1ccc(C#N)cc1)CC2		10.6 µM		> 100 µM				< 0.01 µM								> 100 µM				> 100 µM
O=[N+]([O-])O.[NH-]C1CCCCC1[NH-].[NH-]C1CCCCC1[NH-].[NH-]C1CCCCC1[NH-].[OH-].[OH-].[OH-].[Pt+4].[Pt+4].[Pt+4] (stereo not given)	8.21	> 61.2 µM	0.3	16.5 µM	2.03	93.8 µM	0.0363	1 µM	4.05	> 100 µM	0.918	11.9 µM	4.01	> 64.4	0.452	> 100 µM	0.193	19.2 µM		
COc1cc(/C=C\c2cccnc2Nc2ccccc2)cc(OC)c1OC	0.947	9.17 µM	4.96	25.4 µM	16.3	> 100 µM	4.17	16.4 µM	6.5	> 100 µM	8.99	38.1 µM	12.6	> 100			7.08	> 100 µM		
CC[C@@]1(O)C(=O)OCc2c1cc1n(c2=O)Cc2cc3c(NC(C)=O)c(O)ccc3nc2-1	7.76	51.9 µM	0.272	2.71 µM	4.19	> 100 µM	2.08	8.97 µM	14.4	> 61.3 µM	1.04	15.8 µM			3.47	> 70.2 µM	0.0542	1.07 µM	< 0.0148	0.108 µM
CCC1NCC(=O)c2c1[nH]c1ccccc21 (stereo not given)		> 100 µM		> 100 µM		> 100 µM		> 100 µM		> 100 µM		> 100 µM				> 100 µM		> 100 µM		> 100 µM
CCCCCCCCCCCCCCCC(=O)N[C@H]1CCc2cc(OC)c(OC)c(OC)c2-c2ccc(SC)c(=O)cc21	0.564	11.3 µM and 5.32 µM	1.21	13.4 µM and 11.8 µM	19.7	41.1 µM and 36.8 µM	1.52	5.73 µM and 4.4 µM	0.845	8.4 µM and 3.73 µM	0.386	2.86 µM and 1.89 µM			0.709	11.1 µM and 14.5 µM	2.68	11.4 µM and 15.3 µM	0.597	8.28 µM and 13.2 µM
COc1ccc(S(=O)(=O)NCCNc2nccc(-c3c(-c4ccccc4)nc4sccn34)n2)cc1	3.73	65.7 µM	1.17	> 100 µM	> 100	> 100 µM			0.513	> 100 µM	2.77	> 100 µM							0.784	> 100 µM
CCCCCCCCC(=O)NCCCNCCCNC(=O)CCCCCCCC		14.1 µM		12.3 µM		28.5 µM		14.1 µM		3.48 µM		4.15 µM				4.55 µM		14.9 µM		5.81 µM
CN1c2ccccc2C(=O)Nc2cnc(Cl)nc21		> 100 µM		> 100 µM		> 100 µM		> 100 µM		> 100 µM		> 100 µM		> 100		> 100 µM		> 100 µM		
Clc1ccccc1C1=NN(c2ccccc2)C2c3cc(Br)ccc3OCC12 (stereo not given)		> 100 µM				> 100 µM				> 100 µM						> 100 µM		> 100 µM		
N#CC(=C=[N-])[n+]1ccc(Cl)cc1		29.8 µM		29.9 µM		32.7 µM		29.7 µM		59.7 µM		31.1 µM				11.3 µM		56 µM		62.2 µM
